The values below come from PubChem BioAssay (NCI).

Common to all, as to assay: NCI anticancer screen, dose series, 48 h
Assay [1] deals with SR leukemia.
For assay [2], the system named is BT-549 breast.
Assay [3] concerns MALME-3M melanoma.
Assay [4] has as its system A549 NSCLC.

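Grown in 96-well plates, cells were treated for 48 hours with each compound at five concentrations. Insufficient inhibition: endpoint recorded as highest concentration tested. Definition used: TGI = concentration required for complete inhibition of growth.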

Consider `CCN(CCCl)c1cc(CN(C)C)cc(NC(=O)c2ccc(C(=O)Nc3cc(CN(C)C)cc(N(CC)CCCl)c3)cc2)c1`, for which the TGI in assay [1] turned out to be 18.1 µM; in assay [2], 0.683 µM; in assay [3] it was 0.88 µM; in assay [4], 3.89 µM.

`CN1CCCC2C(c3ccccc3)C(C3=NCCCC3)C(c3ccccc3)CC21` (stereo unspecified): the TGI is over 100 µM in assay [1], over 100 µM in assay [2], 37.6 µM in assay [3] and over 100 µM in assay [4].

As for `O=C(CP(=O)(c1ccccc1)c1ccccc1)c1cccc(C(=O)CP(=O)(c2ccccc2)c2ccccc2)c1`, the TGI in assay [1] and in assay [4] was over 100 µM each time.

With `C=C(C)C1CC=C(C)C(=O)C1` (stereo unspecified), the TGI in assay [1], in assay [3] and in assay [4] was over 100 µM throughout.

`O=C1c2ccccc2C(=O)C2NC(CCCCCSSCCCCCC3=NC4C(=O)c5ccccc5C(=O)C4N3)=NC12` (stereo unspecified) registered a TGI in assay [1] of over 100 µM.

For the compound `[O-][n+]1nc(N2CCOCC2)nc2ccccc21`, the TGI in assay [2], in assay [3] and in assay [4] was over 100 µM each time.

Turning to `O=C1c2c(Br)sc(Br)c2C(NC(=O)C(F)(F)F)C1O` (stereo unspecified), the TGI in assay [2] was 34.9 µM; in assay [3], 43.7 µM; in assay [4], 58.5 µM.

For `O=C1CC(Br)c2c(Br)sc(Br)c21` (stereo unspecified), the TGI in assay [2] is 36.7 µM; in assay [3] it was 38.3 µM; in assay [4] it was over 100 µM.

With `CC(=O)OCC(OC(C)=O)C1C[C@H]2O[C@@H]3[C@H](C[C@H]2O1)O[C@@]1(C[C@@H]3C)C[C@H](C)[C@@H]2O[C@]3(C[C@@H]2O1)C[C@H]1O[C@H]2[C@H](C)[C@H]4OC(=O)C[C@H]5CC[C@@H]6OC7[C@H]8O[C@]9(CC[C@H]%10CC(=O)[C@H](CC[C@H]%11C[C@@H](C)C(=O)C(C[C@@H]4O[C@H]2C[C@H]1O3)O%11)O%10)CC8O[C@@H]7[C@@H](O9)[C@H]6O5` (stereo partly specified), the figures for the TGI in assay [1], in assay [2] and in assay [4] were over 1 µM, 0.411 µM and over 1 µM, respectively.

For the compound `NCc1ccc(-c2ccc(CN)s2)s1`, the TGI in assay [3] and in assay [4] was over 100 µM in each case.

In the case of `CC(=O)C(C(=O)c1ccc(C)cc1)[C@@H]1OC(C)(C)O[C@@H]1[C@H]1COC(C)(C)O1` (stereo partly specified), the values for the TGI in assay [2], in assay [3] and in assay [4] were over 32.4 µM, 34 µM and over 91.6 µM, respectively.

For `CCC(C)C(=O)OC1C(=O)OC2CC3C(C)=CC(=O)C(O)C3(C)C3C4(O)OCC23C1C(C)C4O` (stereo unspecified), the TGI was 0.094 µM in assay [2], under 0.021 µM in assay [3] and 2.38 µM in assay [4].

Turning to `CC[C@@]1(O)C(=O)OCc2c1cc1n(c2=O)Cc2c-1nc1ccccc1c2/C=N\NC(=O)C[n+]1ccccc1`, the TGI in assay [2], in assay [3] and in assay [4] was over 100 µM throughout.

Turning to `O=[N+]([O-])/C(C(Cl)=C(Cl)Cl)=C1\Nc2ccc([N+](=O)[O-])cc2N1`, the TGI in assay [2], in assay [3] and in assay [4] was over 100 µM throughout.

Consider `Cc1cccc(N/C(=C(/C(Cl)=C(Cl)Cl)[N+](=O)[O-])n2nnc3ccccc32)c1`, for which the TGI in assay [2] is 36.5 µM; in assay [3], 28.1 µM; in assay [4] it was 36 µM.

Turning to `COc1ccc(NC(=S)Nc2cc(C)ccn2)cc1`, the TGI in assay [1] and in assay [2] was over 100 µM throughout.

Regarding `CN(CCC(=O)N1CC(CCl)c2ccc([N+](=O)[O-])cc21)CCC(=O)N1CC(CCl)c2ccc([N+](=O)[O-])cc21` (stereo unspecified), the TGI is over 100 µM in assay [2], 23.7 µM in assay [3] and over 100 µM in assay [4].

Consider `COC(=O)C1=CC2C(=O)c3ccccc3C1(c1ccccc1)N2C1CCCCC1` (stereo unspecified), for which the TGI in assay [2] was 79.7 µM; in assay [3] it was 73.1 µM; in assay [4], over 100 µM.

Take `COc1ccc(CC2Cc3ccccc3CCN2)cc1OC` (stereo unspecified): the TGI in assay [2], in assay [3] and in assay [4] was over 50 µM throughout.

Consider `Cc1cc(S(=O)(=O)Nc2nc(N)nc(N3N=CCC3C)n2)c(SCC(=O)O)cc1Cl` (stereo unspecified), for which the TGI in assay [2], in assay [3] and in assay [4] was over 10 µM in each case.

In the case of `COc1cc2c(cc1OCCCNC(=O)c1cc3ccccc3[nH]1)N=C[C@@H]1CCCN1C2=O`, the TGI in assay [1] is over 100 µM; in assay [2], 0.559 µM; in assay [4] it was over 100 µM.

As for `Cc1ccc(-c2c(C#N)c(-c3ccccc3)n(NS(=O)(=O)c3ccc(C)cc3)c(=O)c2C#N)cc1`, the TGI in assay [2], in assay [3] and in assay [4] was over 100 µM throughout.

For `C[C@]12CCC(O)CC1=CC[C@@H]1[C@@H]2CC[C@]2(C)C(O)[C@H](n3ccnc3)C[C@@H]12` (stereo partly specified), the TGI in assay [1], in assay [3] and in assay [4] was over 100 µM each time.
